According to paper PMC8119466, “A screen of FDA-approved drugs identifies inhibitors of protein tyrosine phosphatase 4A3 (PTP4A3 or PRL-3)” (Scientific Reports, 2021):
Where a name gives a salt, the structure may show the parent alone. Read-outs that look alike come from different tables or passages of the source.

What was measured:
Type in all cases: biochemical
recombinant PRL-3 = molecular target: T1, recombinant PRL-3 (Homo sapiens, UniProt O75365); test: In vitro phosphatase assay (DiFMUP hydrolysis), PRL-3; on % Phosphatase Activity (compared to DMSO) PRL-3: test concentration or dose not given here
T1 construct: 6xHis (N, cleaved yes); made in house; host or cells: E. coli One Shot BL21 Star

recombinant PRL-1 = molecular target: T2, recombinant PRL-1 (Homo sapiens, UniProt Q93096); test: In vitro phosphatase assay (DiFMUP hydrolysis), PRL-1; on % Phosphatase Activity (compared to DMSO) PRL-1: test concentration or dose not given here
T2 construct: 6xHis (N, cleaved yes); made in house; host or cells: E. coli One Shot BL21 Star
T2 sequence (Q93096 1-173): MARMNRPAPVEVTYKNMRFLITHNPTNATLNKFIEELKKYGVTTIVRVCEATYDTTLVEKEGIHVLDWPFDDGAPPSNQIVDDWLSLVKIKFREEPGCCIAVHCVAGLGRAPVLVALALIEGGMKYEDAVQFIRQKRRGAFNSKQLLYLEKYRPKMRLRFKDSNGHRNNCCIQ

recombinant PRL-2 = molecular target: T3, recombinant PRL-2 (Homo sapiens, UniProt Q12974); test: In vitro phosphatase assay (DiFMUP hydrolysis), PRL-2;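 further: PRL-2 activity read as DiFMUP hydrolysis after 20 min at room temperature with drug, enzyme first pre-reduced at 4 °C for 20 min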
T3 construct: 6xHis (N, cleaved yes); made in house; host or cells: E. coli One Shot BL21 Star
T3 sequence (Q12974 1-167): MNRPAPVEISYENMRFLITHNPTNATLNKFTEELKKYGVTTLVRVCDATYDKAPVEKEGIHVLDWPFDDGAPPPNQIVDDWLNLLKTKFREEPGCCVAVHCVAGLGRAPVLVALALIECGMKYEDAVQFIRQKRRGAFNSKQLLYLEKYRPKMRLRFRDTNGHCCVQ

[1] = FDA-approved drug screen, compared to DMSO

T1 sequence (O75365 whole entry): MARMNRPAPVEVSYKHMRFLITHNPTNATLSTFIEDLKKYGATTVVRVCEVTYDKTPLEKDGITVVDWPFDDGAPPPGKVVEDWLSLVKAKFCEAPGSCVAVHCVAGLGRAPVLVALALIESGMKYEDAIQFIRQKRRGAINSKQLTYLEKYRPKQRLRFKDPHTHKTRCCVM

## CCC(=O)O[C@]1(C(=O)CCl)[C@@H](C)C[C@H]2[C@@H]3CCC4=CC(=O)C=C[C@]4(C)[C@@]3(F)[C@@H](O)C[C@@]21C [Clobetasol propionate]
Recombinant PRL-3; [1]
  % Phosphatase Activity (compared to DMSO) PRL-3: 78%
Recombinant PRL-1; [1]
  % Phosphatase Activity (compared to DMSO) PRL-1: 92%
Recombinant PRL-2; [1]
  % Phosphatase Activity (compared to DMSO) PRL-2: 88%

## Nc1nc(Cl)nc2c1ncn2[C@@H]1O[C@H](CO)[C@@H](O)[C@@H]1F [Clofarabine]
Recombinant PRL-3; [1]
  % Phosphatase Activity (compared to DMSO) PRL-3: 81%
Recombinant PRL-1; [1]
  % Phosphatase Activity (compared to DMSO) PRL-1: 97%
Recombinant PRL-2; [1]
  % Phosphatase Activity (compared to DMSO) PRL-2: 100%

## CC(C)/N=c1\cc2n(-c3ccc(Cl)cc3)c3ccccc3nc-2cc1Nc1ccc(Cl)cc1 [Clofazimine]
Recombinant PRL-3; [1]
  % Phosphatase Activity (compared to DMSO) PRL-3: 69%
Recombinant PRL-1; [1]
  % Phosphatase Activity (compared to DMSO) PRL-1: 78%
Recombinant PRL-2; [1]
  % Phosphatase Activity (compared to DMSO) PRL-2: 96%

## CC(C)(Oc1ccc(Cl)cc1)C(=O)O [Clofibric Acid]
Recombinant PRL-3; [1]
  % Phosphatase Activity (compared to DMSO) PRL-3: 81%
Recombinant PRL-1; [1]
  % Phosphatase Activity (compared to DMSO) PRL-1: 99%
Recombinant PRL-2; [1]
  % Phosphatase Activity (compared to DMSO) PRL-2: 95%

## CC(C)(C)CC(C)(C)c1ccc(O)c(Cc2ccc(Cl)cc2Cl)c1 [Clofoctol]
Recombinant PRL-3; [1]
  % Phosphatase Activity (compared to DMSO) PRL-3: 83%
Recombinant PRL-1; [1]
  % Phosphatase Activity (compared to DMSO) PRL-1: 91%
Recombinant PRL-2; [1]
  % Phosphatase Activity (compared to DMSO) PRL-2: 87%

## CCN(CC)CCOc1ccc(C(=C(Cl)c2ccccc2)c2ccccc2)cc1 [Clomifene citrate]
Recombinant PRL-3; [1]
  % Phosphatase Activity (compared to DMSO) PRL-3: 96%
Recombinant PRL-1; [1]
  % Phosphatase Activity (compared to DMSO) PRL-1: 120%
Recombinant PRL-2; [1]
  % Phosphatase Activity (compared to DMSO) PRL-2: 128%

## CN(C)CCCN1c2ccccc2CCc2ccc(Cl)cc21 [Clomipramine HCl]
Recombinant PRL-3; [1]
  % Phosphatase Activity (compared to DMSO) PRL-3: 96%
Recombinant PRL-1; [1]
  % Phosphatase Activity (compared to DMSO) PRL-1: 108%
Recombinant PRL-2; [1]
  % Phosphatase Activity (compared to DMSO) PRL-2: 114%

## Clc1cccc(Cl)c1N=C1NCCN1 [Clonidine HCl]
Recombinant PRL-3
  % Phosphatase Activity (compared to DMSO) PRL-3: 85%
Recombinant PRL-1
  % Phosphatase Activity (compared to DMSO) PRL-1: 118%
Recombinant PRL-2
  % Phosphatase Activity (compared to DMSO) PRL-2: 115%

## COC(=O)[C@H](c1ccccc1Cl)N1CCc2sccc2C1 [Clopidogrel]
Recombinant PRL-3
  % Phosphatase Activity (compared to DMSO) PRL-3: 81%
Recombinant PRL-1
  % Phosphatase Activity (compared to DMSO) PRL-1: 100%
Recombinant PRL-2
  % Phosphatase Activity (compared to DMSO) PRL-2: 86%

## Cc1nc(C)c(Cl)c(O)c1Cl [Clopidol]
Recombinant PRL-3; [1]
  % Phosphatase Activity (compared to DMSO) PRL-3: 80%
Recombinant PRL-1; [1]
  % Phosphatase Activity (compared to DMSO) PRL-1: 112%
Recombinant PRL-2; [1]
  % Phosphatase Activity (compared to DMSO) PRL-2: 109%

## CC(C)NCC(O)c1ccccc1Cl.Cl (stereo not drawn) [Clorprenaline HCl]
Recombinant PRL-3; [1]
  % Phosphatase Activity (compared to DMSO) PRL-3: 75%
Recombinant PRL-1; [1]
  % Phosphatase Activity (compared to DMSO) PRL-1: 91%
Recombinant PRL-2; [1]
  % Phosphatase Activity (compared to DMSO) PRL-2: 102%

## Nc1cc(C(Cl)=C(Cl)Cl)c(S(N)(=O)=O)cc1S(N)(=O)=O [Clorsulon]
Recombinant PRL-3; [1]
  % Phosphatase Activity (compared to DMSO) PRL-3: 92%
Recombinant PRL-1; [1]
  % Phosphatase Activity (compared to DMSO) PRL-1: 98%
Recombinant PRL-2; [1]
  % Phosphatase Activity (compared to DMSO) PRL-2: 115%

## Cc1cc(C(C#N)c2ccc(Cl)cc2)c(Cl)cc1NC(=O)c1cc(I)cc(I)c1[O-].[Na+] (stereo not drawn) [Closantel Sodium, reference compound]
Recombinant PRL-3; [1]
  % Phosphatase Activity (compared to DMSO) PRL-3: 34%
Recombinant PRL-3; […] protein, DiFMUP at KM, read-out: Calculated IC50, PRL-3 phosphatase activity
  IC50: 10 ± 0.4 µM
Recombinant PRL-1; [1]
  % Phosphatase Activity (compared to DMSO) PRL-1: 15%
Recombinant PRL-1; […] protein, DiFMUP at KM, read-out: Calculated IC50, PRL-1 phosphatase activity
  IC50: 22 ± 8 µM
Recombinant PRL-2; [1]
  % Phosphatase Activity (compared to DMSO) PRL-2: 12%
Recombinant PRL-2; […] protein, DiFMUP at KM, read-out: Calculated IC50, PRL-2 phosphatase activity
  IC50: 18 ± 1 µM

## Cc1onc(-c2ccccc2Cl)c1C(=O)N[C@@H]1C(=O)N2[C@@H]1SC(C)(C)[C@@H]2C(=O)O [Cloxacillin Sodium]
Recombinant PRL-3; [1]
  % Phosphatase Activity (compared to DMSO) PRL-3: 87%
Recombinant PRL-1; [1]
  % Phosphatase Activity (compared to DMSO) PRL-1: 98%
Recombinant PRL-2; [1]
  % Phosphatase Activity (compared to DMSO) PRL-2: 104%

## Oc1ccc(Cl)c2cccnc12 [Cloxiquine]
Recombinant PRL-3; [1]
  % Phosphatase Activity (compared to DMSO) PRL-3: 90%
Recombinant PRL-1; [1]
  % Phosphatase Activity (compared to DMSO) PRL-1: 108%
Recombinant PRL-2; [1]
  % Phosphatase Activity (compared to DMSO) PRL-2: 100%

## CN1CCN(C2=Nc3cc(Cl)ccc3Nc3ccccc32)CC1 [Clozapine]
Recombinant PRL-3; [1]
  % Phosphatase Activity (compared to DMSO) PRL-3: 85%
Recombinant PRL-1; [1]
  % Phosphatase Activity (compared to DMSO) PRL-1: 108%
Recombinant PRL-2; [1]
  % Phosphatase Activity (compared to DMSO) PRL-2: 95%

## CC(C)c1nc(CN(C)C(=O)N[C@@H](CCN2CCOCC2)C(=O)N[C@H](CC[C@H](Cc2ccccc2)NC(=O)OCc2cncs2)Cc2ccccc2)cs1 [Cobicistat (GS-9350)]
Recombinant PRL-3; [1]
  % Phosphatase Activity (compared to DMSO) PRL-3: 95%
Recombinant PRL-1; [1]
  % Phosphatase Activity (compared to DMSO) PRL-1: 88%
Recombinant PRL-2; [1]
  % Phosphatase Activity (compared to DMSO) PRL-2: 95%
